Test system: patients with moderate to severe chronic plaque psoriasis
Test: PASI response, Phase II 12-week placebo-controlled trial with 48-week extension
Format: in vivo, human
Settings: for PASI 50 / PASI 90 / PASI 100: after 60 weeks of 40 mg eow; for patients with PASI<50 response, qualified for dosage escalation to weekly: on or after Week 24; for Number of Patients Who Qualified for Dosage Escalation: placebo/adalimumab 40 mg eow (n = 18)
Description: Efficacy outcome measures included PASI and PGA.
The two primary clinical outcome measures used in this study were the psoriasis area and severity index (PASI) and the physician's global assessment (PGA). PASI improvement of greater than or equal to 75% (used as an endpoint in psoriasis clinical trials) at week 12 was the primary efficacy outcome measure for this study. PASI is a composite index indicating severity for three main signs of psoriatic plaques (erythema, scaling, and thickness), weighted by the amount of coverage of these plaques in four main body areas, i.e., head, trunk, upper extremities, and lower extremities. PASI scores, which range from 0-72, with higher scores indicating greater severity, were assessed at screening, baseline, week 1, week 2, week 4, week 8, week 12/early termination, and follow-up.
Skin and safety outcomes were assessed up to Week 60.
Analytical methods included the following: • Analyses of clinical data were performed on a modified intention-to-treat population (ITT). […] Patients whose dosages were increased on or after Week 24 were considered non-responders; • Patients with similar percentage PASI improvement across treatment arms were pooled into four strata: PASI<50, PASI 50-74, PASI 75-99, and PASI 100; and • Week-60 distribution of DLQI scores, mean DLQI scores, and mean change in DLQI from Week 0-60 were calculated within each stratum.
Frequently used as an endpoint in psoriasis clinical trials, the PASI [25] was the primary efficacy outcome in this trial. PASI is a composite index indicating the severity of the three main signs of psoriatic plaques (i.e., erythema, scaling, and thickness) and is weighted by the amount of coverage of these plaques in the four main body areas (head, trunk, upper extremities, and lower extremities). PASI scores range from 0-72, with higher scores indicating greater disease severity. PASI was assessed at screening and baseline, at Weeks 1, 2, 4, 8, and 12/Early Termination, and at the final follow-up visit.
At week 12, placebo patients received an 80-mg loading dose, then 40 mg every other week. […] Patients who receive the rescue therapy were considered non-responders in this analysis.

[1] = Week 60, adalimumab 40 mg weekly, modified ITT, NRI
[2] = Week 60, placebo/adalimumab 40 mg eow (adalimumab from Week 12), modified ITT, NRI
[3] = baseline PASI ≧10 and DLQI >10, 40 mg eow, Week 12
[4] = baseline PASI ≧10 and DLQI >10, 40 mg eow, Week 24
[5] = baseline PASI ≧10 and DLQI >10, 40 mg eow, Week 36
[6] = baseline PASI ≧10 and DLQI >10, 40 mg eow, Week 60
[7] = baseline PASI ≧10 and DLQI >10, 40 mg weekly, Week 12
[8] = baseline PASI ≧10 and DLQI >10, 40 mg weekly, Week 24
[9] = baseline PASI ≧10 and DLQI >10, 40 mg weekly, Week 36
[10] = baseline PASI ≧10 and DLQI >10, 40 mg weekly, Week 60
[11] = baseline PASI ≧10 and DLQI >10, placebo/adalimumab 40 mg eow, Week 24
[12] = baseline PASI ≧10 and DLQI >10, placebo/adalimumab 40 mg eow, Week 36
[13] = baseline PASI ≧10 and DLQI >10, placebo/adalimumab 40 mg eow, Week 60
[14] = dosage escalation group (eow to 40 mg weekly, n = 30), Week 60
[15] = placebo/adalimumab 40 mg eow, Week 60, modified ITT, NRI
[16] = weekly group, week 60, observed analysis

In the case of “Adalimumab: a human anti-TNF mAb, described in U.S. Pat. No. 6,090,382 as D2E7 (HUMIRA, Abbott Laboratories)”, the “PASI 50 (% patients)” value [1] is reported as 66%, the “Percentage of patients who achieved PASI 75” value [1] is reported as 64% and the “Percentage of patients who achieved PASI 90” value [1] is reported as 48%. For the same substance, the “Percentage of patients who achieved PASI 100” value (Week 60, placebo/adalimumab 40 mg eow (adalimumab from Week 12), NRI) was 19%, the “PASI 50 (% patients)” value [2] was 64% and the “Percentage of patients who achieved PASI 75” value [2] was 45%. For the same substance, the “Percentage of patients who achieved PASI 90” value [2] was 40%, the “PASI 75 response rate” value [3] was 69 % of Patients and the “PASI 90 response rate” value [3] was 39 % of Patients. The “PASI 75 response rate” value [4] was 77 % of Patients, the “PASI 90 response rate” value [4] was 54 % of Patients and the “PASI 75 response rate” value [5] was 73 % of Patients. The “PASI 90 response rate” value [5] was 58 % of Patients, the “PASI 75 response rate” value [6] was 65 % of Patients and the “PASI 90 response rate” value [6] was 42 % of Patients. For the same substance, the “PASI 75 response rate” value [7] was 74 % of Patients, the “PASI 90 response rate” value [7] was 61 % of Patients and the “PASI 75 response rate” value [8] was 78 % of Patients. For the same substance, the “PASI 90 response rate” value [8] was 70 % of Patients, the “PASI 75 response rate” value [9] was 74 % of Patients and the “PASI 90 response rate” value [9] was 65 % of Patients. For the same substance, the “PASI 75 response rate” value [10] was 65 % of Patients, the “PASI 90 response rate” value [10] was 48 % of Patients and the “PASI 75 response rate” value [11] was 50 % of Patients. The “PASI 90 response rate” value [11] was 28 % of Patients, the “PASI 75 response rate” value [12] was 50 % of Patients and the “PASI 90 response rate” value [12] was 50 % of Patients. For the same substance, the “PASI 75 response rate” value [13] was 44 % of Patients, the “PASI 90 response rate” value [13] was 39 % of Patients and the “PASI 50 response rate” value [14] was 40%. For the same substance, the “PASI 75 response rate” value [14] was roughly 20%, the “PASI 90 response rate” value [14] was 0% and the “PASI 75 response rate” value (dosage escalation group (eow to 40 mg weekly, n = 30), Week 60, listed as adalimumab) was 17%. The “PASI 50 response” value (eow arm, Week 24) was 73, the “PASI 75 response rate” value (no prior use, 40 mg eow, Week 24) was 65 % Patients and the “PASI 75 response rate” value (no prior use, 40 mg eow, Week 60) was 48 % Patients. For the same substance, the “PASI 75 response rate” value (no prior use, 40 mg weekly, Week 24) was 76 % Patients, the “PASI 75 response rate” value (no prior use, 40 mg weekly, Week 60) was 64 % Patients and the “PASI 50” value (no prior use) was 65%. For the same substance, the “PASI 90” value (no prior use) was 30%, the “PASI 100” value (no prior use) was 17% and the “PASI 75 response rate” value (no prior use, placebo/adalimumab 40 mg eow, Week 24) was 56 % Patients. The “PASI 75 response rate” value (no prior use, placebo/adalimumab 40 mg eow, Week 60) was 40 % Patients, the “patients with PASI<50 response, qualified for dosage escalation to weekly” value (of the 45 patients in adalimumab eow group) was 12 patients and the “patients with PASI<50 response, qualified for dosage escalation to weekly” value (of the 47 patients in placebo/adalimumab eow group) was 18 patients. For the same substance, the “patients with PASI≧75 after dose escalation” value (original adalimumab 40 mg every other week arm (two out of nine), week 60) was 22%, the “patients with PASI≧75 after dose escalation” value (original placebo/adalimumab 40 mg every other week arm (two out of thirteen), week 60) was 15% and the “Number of Patients Who Qualified for Dosage Escalation” value (from here on “Number of Patients Who Qualified”) (Week 24) was 10. For the same substance, the “Number of Patients Who Qualified” value (Week 28) was 2, the “Number of Patients Who Qualified” value (Week 32) was 2 and the “Number of Patients Who Qualified” value (Week 44) was 1. For the same substance, the “Number of Patients Who Qualified” value (Week 52) was 3, the “Number of Patients Who Qualified” value (Week 60) was 0 and the “Overall PASI 75 response rate” value (placebo/adalimumab 40 mg eow, Week 24, modified ITT, NRI) was 55 % of Patients. The “Overall PASI 75 response rate” value (placebo/adalimumab 40 mg eow, Week 36, modified ITT, NRI) was 62 % of Patients, the “Overall PASI 75 response rate” value [15] was 45 % of Patients and the “PASI 50 response rate” value [15] was 57 % Patients. The “PASI 90 response rate” value [15] was 40 % Patients, the “PASI 100 response rate” value [15] was 19 % Patients and the “PASI 50 response” value (placebo/eow arm, Week 24) was 77. The “PASI 50” value (prior biologic use) was 63%, the “PASI 90” value (prior biologic use) was 38% and the “PASI 100” value (prior biologic use) was 13%. The “PASI 75 response rate” value (prior biological use, 40 mg eow, Week 24) was 50 % Patients, the “PASI 75 response rate” value (prior biological use, 40 mg eow, Week 60) was 63 % Patients and the “PASI 75 response rate” value (prior biological use, 40 mg weekly, Week 24) was 67 % Patients. The “PASI 75 response rate” value (prior biological use, 40 mg weekly, Week 60) was 78 % Patients, the “PASI 75 response rate” value (prior biological use, placebo/adalimumab 40 mg eow, Week 24) was 63 % Patients and the “PASI 75 response rate” value (prior biological use, placebo/adalimumab 40 mg eow, Week 60) was 63 % Patients. For the same substance, the “PASI 75 response rate” value (prior systemic use, 40 mg eow, Week 24) was 68 % Patients, the “PASI 75 response rate” value (prior systemic use, 40 mg eow, Week 60) was 68 % Patients and the “PASI 75 response rate” value (prior systemic use, 40 mg weekly, Week 24) was 73 % Patients. The “PASI 75 response rate” value (prior systemic use, 40 mg weekly, Week 60) was 64 % Patients, the “PASI 50” value (prior systemic use) was 68% and the “PASI 90” value (prior systemic use) was 37%. For the same substance, the “PASI 100” value (prior systemic use) was 11%, the “PASI 75 response rate” value (prior systemic use, placebo/adalimumab 40 mg eow, Week 24) was 47 % Patients and the “PASI 75 response rate” value (prior systemic use, placebo/adalimumab 40 mg eow, Week 60) was 41 % Patients. The “PASI 50 response” value (weekly arm, Week 24) was 80, the “PASI 75-99 response rate” value [16] was 38 and the “PASI 100 response rate” value [16] was 26.

From patent US9605064B2, “Methods and compositions for treatment of skin disorders” (AbbVie Biotechnology Ltd, priority 2006, dated 2017)
